The numbers were not newly measured in patent US20020132320A1, “Glycoconjugate synthesis using a pathway-engineered organism” (priority 2001, published 2002), which cites them from elsewhere.

Each structure is given as a SMILES string.

Series [1] has as its target T1, CMP-NeuNAc synthetase (Escherichia coli O18:K1:H7, UniProt P13266).
T1 construct: host or cells: E. coli K1
To be noted: enzyme purified from E. coli K1; read-out: apparent Km.

The target of series [2] is Hyaluronan synthase (spHAS) (Streptococcus pyogenes, UniProt P0C0H0).
The conditions of series [3]: relative to morphine.
In series [4] the test system is UDP-GalNAc pyrophosphorylase. The settings on record: substrate of purified UDP-GalNAc pyrophosphorylase.
The target in series [5] is E. coli NanA (Escherichia coli, UniProt P0A6L4). To be noted: cleavage reaction.

Regarding `Nc1ccn([C@@H]2O[C@H](COP(=O)(O)OP(=O)(O)OP(=O)(O)O)[C@@H](O)[C@H]2O)c(=O)n1` [CTP, Cytosine 5′-triphosphate], the Michaelis constant (Km) in series [1] is 310 µM.
On to `CC(=O)N[C@H]1[C@@H](OP(=O)(O)OP(=O)(O)OC[C@H]2O[C@@H](n3ccc(=O)[nH]c3=O)[C@H](O)[C@@H]2O)O[C@H](CO)[C@@H](O)[C@@H]1O` [UDP-GlcNAc, uridine 5′-diphospho-N-acetylglucosamine], for which the Michaelis-Menten constant (Km) in series [2] is 149 ± 3 µM.
Regarding `O=C(O)[C@H]1O[C@H](OP(=O)(O)OP(=O)(O)OC[C@H]2O[C@@H](n3ccc(=O)[nH]c3=O)[C@H](O)[C@@H]2O)[C@H](O)[C@@H](O)[C@@H]1O` [UDP-GlcA, uridine 5′-diphosphoglucuronic acid], the Km in series [2] was 40 ± 4 µM.
Consider `CN1CC[C@]23c4c5ccc(O)c4O[C@H]2[C@@H](O[C@@H]2O[C@H](C(=O)O)[C@@H](O)[C@H](O)[C@H]2O)C=C[C@H]3[C@H]1C5` [morphine-6-O-glucuronide], for which the “times more active than morphine” value in series [3] is recorded as 50 times.
Take `CC(=O)N[C@H]1C(OP(=O)(O)O)O[C@H](CO)[C@H](O)[C@@H]1O` (stereo partly shown) [GalNAc-1-P, N-acetylgalactosamine-1-phosphate]: the Michaelis constant (Km) in series [4] was 290 µM.
As to `CC(=O)N[C@H]1[C@H]([C@H](O)[C@H](O)CO)OC(O)(C(=O)O)C[C@@H]1O` (stereo partly shown) [NeuNAc, N-acetylneuraminic acid], in series [5], the Km is 4300 µM.
With `CC(=O)NC1C(OP(=O)(O)O)OC(CO)C(O)C1O` (stereo not shown) [GlcNAc-1-P], the Km in series [4] was 1100 µM.

As usually defined, the Km is the concentration of substrate that gives half-maximal velocity.
